According to publication PMC11801377, “A uniquely efficacious type of CFTR corrector with complementary mode of action” (Science Advances, 2024):
One block for each compound: values may come before it.

Legend:
F508del-CFTR [1] = biological target: T1, F508del-CFTR (Homo sapiens, UniProt P13569, DEL508-508); test: Pharmacochaperone trafficking assay: F508del-CFTR cell surface expression in U2OS cells; assay type: cell-based; set-up: host or cells: U2OS (PathHunter U2OS-F508del-CFTR MEM-EA)
Method: This assay was adapted from the DiscoverX PathHunter pharmacochaperone trafficking assay, which is based on the enzyme fragment complementation technique. Briefly, the U2OS-F508del-CFTR cell line (DiscoveRx, #93-0987C3) is engineered to coexpress (i) human F508del-CFTR tagged with a Prolink (PK = short β-galactosidase fragment) and (ii) the remainder of the β-galactosidase enzyme [enzyme acceptor (EA)] localized to the PM. Incubation with compounds that increase trafficking of PK-tagged F508del-CFTR to the PM will lead to complementation of the EA fragment to form a functional β-galactosidase enzyme, which is quantified by a chemiluminescence reaction reporting cell surface CFTR expression. The same principle applies to the counterscreen using U2OS-ADRB2(W158A) cells (DiscoveRx, #93-0986C3). Freshly thawed U2OS-F508del-CFTR and U2OS-ADRB2(W158A) were seeded at 3500 or 5000 cells per well, respectively, in 20 μl per well of cell assay medium [McCoy (Life Technologies), 10% FBS, penicillin (100 U/ml), and streptomycin ([…])] in a 384 white low-volume plate (Corning). Predilutions of compounds in dimethyl sulfoxide (DMSO) were prepared in a 384-well polypropylene plate using an automated liquid-handling system. Dilution series were then transferred into cell assay medium in a polypropylene 384-well plate (Greiner) to obtain 5× concentrated aqueous working stocks. Five hours after cell seeding, 5× working stocks (5 μl per well) were added to the cells (20 μl per well) for an incubation overnight at 37°C. The next day, after 2 hours at room temperature, the cell plates were incubated with 10 μl of Flash detection reagent (#93-0247, DiscoverX) for 30 min, and chemiluminescence signals were detected with a microplate reader (Synergy MX, Agilent BioTek). Chemiluminescence data were normalized to the signal of basal vehicle-treated cells, and mean chemiluminescence values were converted to concentration-response curves for determination of EC50 and Emax values (GraphPad Prism).
Both above described cell lines [U2OS-F508del-CFTR and U2OS-ADRB2(W158A)] and assays were also used in the high-throughput screening campaign in which compounds were tested at 10 μM concentration with LUM (3 μM) or propranolol (100 nM) serving as 100% controls.

[2] = biological target: T2, MSD2-NBD2 fragment (M837-L1480-CFTR) (Homo sapiens, UniProt P13569); test: Truncated CFTR construct levels (immunoblotting), MSD2-NBD2 fragment; assay type: cell-based; settings: HEK-TREx cells, 40 hours; C4a 10 μM
T2 construct: expressed in transfected cells; host or cells: T-REx HEK293
T2 sequence (P13569 837-1480): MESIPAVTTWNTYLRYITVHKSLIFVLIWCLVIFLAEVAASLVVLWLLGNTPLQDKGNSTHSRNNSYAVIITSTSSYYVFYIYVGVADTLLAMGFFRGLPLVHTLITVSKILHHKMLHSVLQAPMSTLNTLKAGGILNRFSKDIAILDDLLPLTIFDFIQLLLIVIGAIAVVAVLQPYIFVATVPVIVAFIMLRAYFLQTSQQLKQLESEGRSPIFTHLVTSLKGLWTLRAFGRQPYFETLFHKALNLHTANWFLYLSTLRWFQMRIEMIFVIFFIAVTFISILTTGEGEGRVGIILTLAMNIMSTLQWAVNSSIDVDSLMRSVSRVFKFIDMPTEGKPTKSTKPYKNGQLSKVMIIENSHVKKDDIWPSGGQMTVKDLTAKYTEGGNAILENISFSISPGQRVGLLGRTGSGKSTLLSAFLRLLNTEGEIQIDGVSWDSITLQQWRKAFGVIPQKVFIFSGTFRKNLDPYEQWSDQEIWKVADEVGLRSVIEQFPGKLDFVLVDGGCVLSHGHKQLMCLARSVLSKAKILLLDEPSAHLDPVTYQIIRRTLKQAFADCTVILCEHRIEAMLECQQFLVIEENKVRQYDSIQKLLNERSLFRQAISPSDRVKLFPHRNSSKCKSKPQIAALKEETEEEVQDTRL
Description: (§1) The human CFTR expressing HEK cell pools with the mutations described below were generated by integrase-mediated homologous recombination of the CFTR sequence into the T-REx HEK293 background (Thermo Fisher Scientific). This expression system allows the tetracycline-inducible expression of genes of interest from one defined insertion site. Parental T-REx-HEK293 cells were cultivated in growth medium: Dulbecco’s modified Eagle’s medium + GlutaMAX-I (#31966, Life Technologies), 10% dialyzed FBS (Gibco, #26400), penicillin (100 U/ml), streptomycin (100 μg/ml), hygromycin B (0.1 mg/ml; Life Technologies), blasticidin (5 μg/ml; Invitrogen, #R210-01), and 0.1 mM nonessential amino acid solution (Invitrogen, #11140-035). Recombinant T-REx-HEK-CFTR cells were generated by lipofectamine transfection (Life Technologies) of plasmids containing mutated versions of CFTR (RefSeq NM_000492) and then cultivated in selection medium [growth medium containing Geneticin (1 mg/ml) (Invitrogen, #10131-027) instead of hygromycin]. The plasmid constructs were synthetized by GENEART (Thermo Fisher Scientific) and designed with the WT CFTR intron 5 to 6 (880 nucleotides) to prevent leaky expression issues during the cloning process in bacteria. […]

CFTR = test system: CFTR; set-up: method as in earlier work; settings: ref [27] (GLPG-2737); ref [21], [26], [27] (ELX); cited from earlier work
F508del-CFTR [3] = biological target: T1, F508del-CFTR; test: Halide-sensitive YFP quenching assay in U2OS-F508del-CFTR-YFP cells; assay type: cell-based; set-up: host or cells: U2OS (PathHunter U2OS-F508del-CFTR MEM-EA)
Method: U2OS-F508del-CFTR cells expressing Topaz-YFP F46L/H148Q/I152L were seeded at 20,000 cells per well into 384-well black clear-bottom plates in 40 μl per well growth medium (Mc COY’s 5A, Gibco, 10% FBS, penicillin/streptomycin), containing the various CFTR correctors at the indicated concentrations. The cells were coincubated with the compounds for 24 hours (37°C, 5% CO2). The next day, plates were washed twice with PBS^+ (55 μl per well; PBS containing 0.9 mM Ca^2+ and 0.5 mM Mg^2+). PBS^+ was fully removed, and cells were supplemented with 15 μl PBS^+. Then, 5 μl of 4× concentrated stocks of IVA or vehicle in dilution buffer [PBS^+, 0.1 μM forskolin, and 0.2% bovine serum albumin (fatty acid free) (pH 7.4)] were added and incubated for 30 min in the dark. For experiments with I-172 (Sigma- Aldrich), the inhibitor was added to the mix with either IVA or vehicle to reach a final concentration in cells of 20 μM. Then, plates were transferred to the FLIPR Tetra (fluorescence imaging plate reader; Molecular Devices: excitation: 470 to 495 nm; emission: 526 to 585 nm), baseline fluorescence reading of the YFP signal was performed for 6 s (10 × 0.6 s intervals) after which 25 μl of iodide buffer [137 mM NaI, 2.7 mM KCl, 1.5 mM KH2PO4, 8.1 mM Na2HPO4, 1 mM CaCl2, and 0.5 mM MgCl2 (pH 7.4)] was added, and fluorescence reading was continued for 70 s (50 × 0.6 s intervals; 20 x 2 s intervals) to assess YFP quenching through CFTR-mediated iodide influx. For analysis, fluorescence traces were aligned and normalized at the last time point before iodide addition (normalized fluorescence = 1). Normalized fluorescence values obtained 20 s after the beginning of the assay were used to assess the degree of YFP quenching, i.e., CFTR function (see fig. S1J). […] Then, plates were read and analyzed as above. […] Then, plates were transferred to the FLIPR Tetra and read and analyzed as above.

F508del.L15W-CFTR = test: Site-directed mutagenesis immunoblotting, HEK-TREx, F508del.L15W-CFTR; assay type: cell-based, human; settings: 40 h, 2 μM
Description: as §1

F508del.K14A-CFTR = test: Site-directed mutagenesis immunoblotting, HEK-TREx, F508del.K14A-CFTR; assay type: cell-based, human; settings: 40 h, 2 μM
Description: as §1

[4] = U2OS cells, overnight treatment

T1 sequence (P13569 with tags, fused parts or gaps DEL508-508): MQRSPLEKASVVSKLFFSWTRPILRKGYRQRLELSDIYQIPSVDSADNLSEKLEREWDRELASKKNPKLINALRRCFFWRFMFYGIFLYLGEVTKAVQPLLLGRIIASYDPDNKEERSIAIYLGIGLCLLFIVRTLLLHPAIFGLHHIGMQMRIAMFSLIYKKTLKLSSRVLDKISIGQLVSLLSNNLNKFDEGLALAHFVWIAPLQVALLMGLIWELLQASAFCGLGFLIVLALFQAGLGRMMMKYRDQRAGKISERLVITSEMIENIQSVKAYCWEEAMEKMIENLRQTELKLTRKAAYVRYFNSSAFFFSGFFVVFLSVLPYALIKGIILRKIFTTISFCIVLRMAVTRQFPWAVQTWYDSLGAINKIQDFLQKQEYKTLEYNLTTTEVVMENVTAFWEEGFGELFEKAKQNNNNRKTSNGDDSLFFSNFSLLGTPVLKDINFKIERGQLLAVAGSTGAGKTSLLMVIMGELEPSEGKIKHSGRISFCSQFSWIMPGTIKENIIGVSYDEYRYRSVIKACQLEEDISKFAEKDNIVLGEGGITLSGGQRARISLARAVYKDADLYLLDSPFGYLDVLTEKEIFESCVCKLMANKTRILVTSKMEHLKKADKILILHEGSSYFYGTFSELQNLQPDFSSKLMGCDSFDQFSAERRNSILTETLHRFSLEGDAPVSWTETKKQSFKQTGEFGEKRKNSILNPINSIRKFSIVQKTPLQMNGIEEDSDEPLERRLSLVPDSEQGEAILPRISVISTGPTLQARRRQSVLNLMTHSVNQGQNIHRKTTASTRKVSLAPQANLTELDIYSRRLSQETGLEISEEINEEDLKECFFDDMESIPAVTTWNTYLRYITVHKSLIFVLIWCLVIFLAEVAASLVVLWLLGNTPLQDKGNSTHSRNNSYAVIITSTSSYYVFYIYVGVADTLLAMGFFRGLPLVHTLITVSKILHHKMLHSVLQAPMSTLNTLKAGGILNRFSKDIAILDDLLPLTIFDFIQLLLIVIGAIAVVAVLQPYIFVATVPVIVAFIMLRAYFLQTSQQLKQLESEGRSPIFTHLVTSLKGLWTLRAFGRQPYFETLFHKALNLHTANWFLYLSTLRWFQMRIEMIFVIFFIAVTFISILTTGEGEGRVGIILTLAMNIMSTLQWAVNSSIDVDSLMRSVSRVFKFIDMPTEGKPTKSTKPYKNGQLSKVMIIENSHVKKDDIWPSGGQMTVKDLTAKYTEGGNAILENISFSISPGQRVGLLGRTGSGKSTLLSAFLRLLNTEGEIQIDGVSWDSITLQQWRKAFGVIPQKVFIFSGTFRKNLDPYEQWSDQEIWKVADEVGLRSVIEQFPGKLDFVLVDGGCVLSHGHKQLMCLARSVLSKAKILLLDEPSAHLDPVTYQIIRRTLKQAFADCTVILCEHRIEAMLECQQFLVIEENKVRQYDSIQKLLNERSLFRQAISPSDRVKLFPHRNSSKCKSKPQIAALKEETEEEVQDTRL

Compound: C[C@@H]1CN(c2nc(-n3ccc(OCCC4(C(F)(F)F)CC4)n3)ccc2C(=O)NS(=O)(=O)c2ccccc2)C(C)(C)C1 [BAM, bamocaftor]
maximal F508del-CFTR surface expression (Emax) (F508del-CFTR [1]; [4]): seven- to ninefold

Compound: COC1CCN(C2CCN(c3cc(C(=O)NS(=O)(=O)N(C)C)nc4c3c(C3CCC3)nn4-c3ccc(F)cc3)CC2)CC1 [GLPG-2737]
acute effect on CFTR currents (CFTR): acute inhibitory

Compound: O=C(O)c1ccc(/C=C2\SC(=S)N(c3cccc(C(F)(F)F)c3)C2=O)cc1 [I-172]
effect on corrector-induced YFP quenching responses (F508del-CFTR [3]; I-172 20 μM): blocked

Compound: CC(C)CC1C(=O)N(C)CC(=O)NC(Cc2ccccc2)COc2ccccc2C(=O)NC(C(=O)NCCc2ccccc2)CC(=O)N1C (stereo not drawn) [IDOR-0]
EC50 (F508del-CFTR [1]; [4]): 1600 nM | maximal F508del-CFTR surface expression (Emax) (F508del-CFTR [1]; [4]): 3 fold over baseline

Compound: COc1nc(C)cc2c1C(=O)NC(C(=O)NCCc1cccc(N=[N+]=[N-])c1)CC(=O)N(C)C(CC(C)C)C(=O)N(C)C(CC1CCCC1)C(=O)NC(Cc1ccccc1)CO2 (stereo not drawn) [IDOR-6A]
correction by macrocycles versus [LUM + BAM] (F508del.L15W-CFTR): little difference | weaker correction by macrocycles as compared to [LUM + BAM] (F508del.K14A-CFTR): two- to fourfold

The next lines start with results.

maximal F508del-CFTR surface expression (Emax) (F508del-CFTR [1]; [4]): four- to fivefold | additivity in F508del-CFTR surface expression (F508del-CFTR [1]; applied on top of / titrated onto IDOR-4): full additivity or even synergy
Compound: COc1ccc(Cl)cc1Nc1nc(-c2sc(NC(=O)c3ccccc3)nc2C)cs1 [C4a, corrector 4a]
expression of the MSD2-NBD2 fragment [2]: increased the expression of its glycosylated and nonglycosylated forms

maximal F508del-CFTR surface expression (Emax) (F508del-CFTR [1]; [4]): four- to fivefold
Compound: O=C(O)c1ccc([C@H]2C[C@@H](NC(=O)C3(c4ccc5c(c4)OC(F)(F)O5)CC3)c3ccc(OC(F)F)cc3O2)cc1 [GAL, galicaftor]

EC80 of potentiator (F508del-CFTR [3]; concentration used as ~EC80): ~2 nM
Compound: CC(C)(C)c1cc(C(C)(C)C)c(NC(=O)c2c[nH]c3ccccc3c2=O)cc1O [IVA, ivacaftor]
